Data published in patent publication US7510701B2, “Aerosol-based insecticide compositions and methods of using the same” (Waterbury Companies, Inc., priority 2001, dated 2009).

System: termites
Test: Repellency to termites (termites moving through the treated area)
Format: in vivo
Settings: termites do not detect the active ingredient in the treated area and readily move through it, picking up a lethal dose
Description: […], and in particular deltamethrin, an α-cyano-pyrethroid, are the preferred active ingredients of the insecticide formulation of this invention and provides the formulation with its insecticidal activity. The International Union of Pure and Applied Chemistry name for Deltamethrin is (S)-α-cyano-3-phenoxybenzyl (1R)-cis-3-(2,2-dibromovinyl)-2,2-dimethylcyclopropane-carboxylate. Deltamethrin is produced by AgrEvo Environmental Health of 95 Chestnut Ridge Road, Montvale, N.J., 07645. The concentration of deltamethrin in the insecticide formulation may range from 0.01 to 2% by weight of the insecticide without propellant, but is preferably from 0.01 to 0.5% by weight of the insecticide without propellant and most preferably from 0.10 to 0.30% by weight of the insecticide without the propellant.

For `CC1(C)[C@H](C(=O)O[C@H](C#N)c2cccc(Oc3ccccc3)c2)[C@@H]1C=C(Br)Br` [deltamethrin, (S)-α-cyano-3-phenoxybenzyl (1R)-cis-3-(2,2-dibromovinyl)-2,2-dimethylcyclopropane-carboxylate], the Repellency to termites was “non-repellant to termites”.
